pKi: −log10 of the molar value.
Target: T1, purified bovine catalase (Bos taurus, UniProt P00432)
T1 sequence (P00432 2-527): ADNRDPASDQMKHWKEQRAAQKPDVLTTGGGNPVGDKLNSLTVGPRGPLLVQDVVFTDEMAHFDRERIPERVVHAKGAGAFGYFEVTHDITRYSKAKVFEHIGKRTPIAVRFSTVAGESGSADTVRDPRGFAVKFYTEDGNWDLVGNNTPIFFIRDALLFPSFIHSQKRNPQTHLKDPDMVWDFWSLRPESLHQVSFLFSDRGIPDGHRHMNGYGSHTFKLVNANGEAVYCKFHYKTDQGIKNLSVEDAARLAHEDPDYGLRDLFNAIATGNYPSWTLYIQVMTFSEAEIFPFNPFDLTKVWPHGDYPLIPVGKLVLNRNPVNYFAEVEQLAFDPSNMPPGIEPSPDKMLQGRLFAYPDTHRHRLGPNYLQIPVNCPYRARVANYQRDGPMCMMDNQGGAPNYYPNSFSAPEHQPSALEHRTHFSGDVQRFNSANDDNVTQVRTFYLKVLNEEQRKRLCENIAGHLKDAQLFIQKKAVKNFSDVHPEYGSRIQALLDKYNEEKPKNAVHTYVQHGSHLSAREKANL
Experiment: H2O2 breakdown at […] nm, global fit to competitive inhibition model
Assay type: biochemical

pKi: 3.64
SMILES: NC(=O)NO [Hydroxyurea]
